Results taken from patent US20020107235A1, “Glucocorticoid receptor modulators” (priority 2000, published 2002).

How the values were obtained:
[1] = system: MMP-1 (Matrix Metalloproteinase-1) production in SW1353 human chondrosarcoma cells; assay: glucocorticoid inhibition of IL-1 induced MMP-1 production in human chondrosarcoma cells; type: cell-based; settings: 20 ng/ml IL-1 beta, 72 hours after IL-1 addition, ELISA, read-out: IC50, inhibitor of MMP1 expression
Method: (§1) This assay, the glucocorticoid inhibition of IL-1 (Interleukin-1) induced MMP-1 (Matrix Metalloproteinase-1) and IL-8 (Interleukin-8) production in human chondrosarcoma cells, is conducted as follows: SW1353 human chondrosarcoma cells (obtained from ATCC) from passage 12 through passage 19 are used in a 96 well format assay. Cells are plated at confluence into 96 well plates in DMEM (Dulbecco's Modified Eagle Medium) with 10% fetal bovine serum and incubated at 37° C., 5% CO2. After 24 hours, serum containing media is removed and replaced with 200 ul/well DMEM containing 1 mg/L insulin, 2 g/L lactalbumin hydrosylate, and 0.5 mg/L ascorbic acid and returned to incubation at 37° C., 5% CO2. […] IL-8 production is assessed using the Quantikine human IL-8 ELISA kit from R&D Systems (D8050) on samples diluted 60-fold in RD5P Calibrator Diluent, following the manufacturer's protocol. The percent of the average IL-1 control is determined for the average of each of the triplicate samples following subtraction of the average signal from untreated cells. IC50's are determined from log linear plots of the percent of control versus the concentration of inhibitor. […] MMP-1 production is assessed via the Bio-Trak MMP-1 ELISA kit from Amersham (RPN2610) on 100 ul of neat sample following the manufacturer's protocol. […]

[2] = system: IL-8 (Interleukin-8) production in SW1353 human chondrosarcoma cells; assay: glucocorticoid inhibition of IL-1 induced IL-8 production in human chondrosarcoma cells; type: cell-based; settings: 20 ng/ml IL-1 beta, 24 hours after addition of IL-1, ELISA, read-out: IC50, inhibitor of IL-8 expression
Method: as §1

Work on C[C@@H]1C[C@H]2[C@@H]3CCC4=CC(=O)C=C[C@]4(C)[C@@]3(F)[C@@H](O)C[C@]2(C)[C@@]1(O)C(=O)CO [Dexamethasone, (11β, 16α)-9-fluoro-11,17,21-trihydroxy-16-methylpregna-1,4-diene-3,20-dione] yielded an IC50 [1] of 5 nM and an IC50 [2] of 5 nM.
